This is an account of results in publication PMC12163822, “Synthesis and Pharmacological Characterization of a Novel Cannabinoid Receptor 1 Antagonist” (ACS Omega, 2025).

Structures are written as SMILES.

For the assay, the target named is cannabinoid receptors. As to the kind of experiment: [3H]CP55,940 competition binding in rat brain cortex membrane homogenates. The arrangement: species or system Sprague-Dawley rat. The conditions noted are these: competition vs 0.5 nM [3H]CP55,940, rat brain cortex membranes, one-site fit; read-out: IC50. On the procedure:
Sprague–Dawley rats (n = 5) were anesthetized and sacrificed by decapitation. Spleens and brains were then quickly removed by dissection at 4 °C, and in the case of the brain tissue, the cortex was dissected for the preparation of the membrane homogenates. For this procedure, spleen and cortex samples were homogenized using a Teflon-glass grinder (15 up-and-down strokes at 800 rpm) in 30 volumes of homogenization buffer (1 mM EGTA, 3 mM MgCl2, 50 mM Tris–HCl; pH 7.4) supplemented with […], at 4 °C. The obtained homogenates were centrifuged for 5 min at 1500 rpm. Pellets were removed, and supernatants were centrifuged again for 15 min at 14,000 rpm. For washing, the obtained pellets were resuspended in a buffer and centrifuged again, and the supernatant was removed. The resulting aliquots were stored at −80 °C until use.
To stop the reaction, an ice-cold wash buffer (50 mM Tris–HCl and 0.5% BSA, pH 7.4) was added. Then, the membranes were retained by vacuum filtration to a Whatman GF/C glass microfiber filter (Sigma-Aldrich, St. Louis, MO, USA) and the free radioligand was discarded. Filters with the bound radioligand were transferred to vials containing 5 mL of Ultima Gold cocktail (Revvity, Boston, MA, USA) and measured with a Packard Tri-Carb 2200CA liquid scintillation counter (Revvity, Boston, MA, USA).
Data from radioligand affinity assays were analyzed by using nonlinear regression. A comparison of fits was performed for every curve and the preferred model (one site vs two sites) was chosen in each case. Curves were fitted to the pooled data from multiple experiments. For the evaluation of data from autoradiographic assays, the Kruskal–Wallis test followed by Dunn’s post hoc tests for multiple comparisons was performed. For statistical significance, the threshold was set at p = 0.05. The number of replicates or animal sample number used in each case is stated in the figure legends. GraphPad Prism 9 (GraphPad Software) was employed for data analysis and presentation.
A word on the IC50: it is the midpoint of a concentration-inhibition curve. In the case of `CCOC(=O)/C=C1\C(=O)Nc2ccccc2-c2c1c1ccccc1n2C(=O)OCC` [UVI3508], the IC50 was 310 µM. In the case of `O=C(O)CC1C(=O)Nc2ccccc2-c2[nH]c3ccccc3c21` (stereo not shown) [UVI3504], the IC50 was 5.908 ± 0.00718 µM. For `CCOC(=O)CC1C(=O)Nc2ccccc2-c2[nH]c3ccccc3c21` (stereo not shown) [UVI3505] the value was 0.00885 ± 0.0146 µM.

As for `COc1ccc2[nH]c3c(c2c1)/C(=C/C(=O)O)C(=O)Nc1ccc(C)cc1-3` [UVI3509], the IC50 was greater than 10 µM. For `CCOC(=O)/C=C1\C(=O)Nc2ccc(F)cc2-c2c1c1cc(C)ccc1n2C(=O)OCC` [UVI3503], the IC50 is greater than 10 µM. For `CCOC(=O)CC1c2c([nH]c3ccccc23)-c2ccccc2-n2c(C)nnc21` (stereo not shown) [UVI8113], the half-inhibitory concentration (IC50) was 0.0106 µM. `O=C(O)/C=C1\C(=O)Nc2ccccc2-c2[nH]c3ccccc3c21` [UVI3506]: the IC50 turned out to be 7.041 ± 0.018 µM.
